Among the data in ChEMBL document CHEMBL5291721, “A preclinical secondary pharmacology resource illuminates target-adverse drug reaction associations of marketed drugs” (Nat Commun, 2023) are AC50 values, retold here.

By AC50 is commonly meant the midpoint of the concentration-response curve, whichever way the signal moves.

Some results are limits rather than exact numbers.

One experiment addresses T1, Thromboxane A2 receptor (Homo sapiens, UniProt P21731).
T1 sequence (P21731 whole entry): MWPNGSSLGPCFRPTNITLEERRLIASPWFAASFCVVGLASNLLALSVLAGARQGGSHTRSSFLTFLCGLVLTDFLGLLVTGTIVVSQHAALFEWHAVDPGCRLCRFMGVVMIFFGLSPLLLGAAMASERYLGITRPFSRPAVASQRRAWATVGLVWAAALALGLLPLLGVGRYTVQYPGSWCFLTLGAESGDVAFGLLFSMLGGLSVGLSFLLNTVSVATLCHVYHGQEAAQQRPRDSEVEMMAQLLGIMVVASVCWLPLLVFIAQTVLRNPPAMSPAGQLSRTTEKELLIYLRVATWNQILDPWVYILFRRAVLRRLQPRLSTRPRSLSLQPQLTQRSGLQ
The experiment is classed as functional, cell-based.

The target of another experiment is Mu-type opioid receptor (Homo sapiens, UniProt P35372).
In experiment [1] the target is T2, Muscarinic acetylcholine receptor M2 (Homo sapiens, UniProt P08172).
T2 sequence (P08172 whole entry): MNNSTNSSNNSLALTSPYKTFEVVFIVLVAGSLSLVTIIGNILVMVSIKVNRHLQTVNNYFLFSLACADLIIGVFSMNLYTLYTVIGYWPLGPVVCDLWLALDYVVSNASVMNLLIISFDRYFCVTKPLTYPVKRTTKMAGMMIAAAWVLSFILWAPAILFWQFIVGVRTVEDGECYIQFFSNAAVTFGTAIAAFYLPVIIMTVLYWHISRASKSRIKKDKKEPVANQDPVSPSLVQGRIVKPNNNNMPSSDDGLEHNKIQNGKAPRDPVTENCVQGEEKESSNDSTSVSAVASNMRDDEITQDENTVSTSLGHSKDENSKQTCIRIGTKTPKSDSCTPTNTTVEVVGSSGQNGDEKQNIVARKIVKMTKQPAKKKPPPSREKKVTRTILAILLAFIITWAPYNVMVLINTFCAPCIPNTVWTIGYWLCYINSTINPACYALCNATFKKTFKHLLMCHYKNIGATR

In experiment [2] the target is Sodium-dependent noradrenaline transporter (Homo sapiens, UniProt P23975).
Experiment [3] concerns the target T3, Alpha-2A adrenergic receptor (Homo sapiens, UniProt P08913).
T3 sequence (P08913 whole entry): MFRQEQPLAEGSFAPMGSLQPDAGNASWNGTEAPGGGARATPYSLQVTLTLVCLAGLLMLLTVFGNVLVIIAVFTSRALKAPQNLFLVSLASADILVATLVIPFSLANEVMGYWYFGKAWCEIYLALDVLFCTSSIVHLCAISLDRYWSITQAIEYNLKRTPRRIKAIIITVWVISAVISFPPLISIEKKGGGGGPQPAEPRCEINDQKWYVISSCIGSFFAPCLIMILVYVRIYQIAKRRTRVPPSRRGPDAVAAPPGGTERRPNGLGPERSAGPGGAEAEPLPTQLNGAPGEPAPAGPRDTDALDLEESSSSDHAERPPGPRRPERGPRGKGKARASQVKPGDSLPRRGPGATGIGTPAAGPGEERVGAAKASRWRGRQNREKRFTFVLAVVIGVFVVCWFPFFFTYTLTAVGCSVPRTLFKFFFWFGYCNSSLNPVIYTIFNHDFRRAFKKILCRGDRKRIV

Another experiment deals with D(1A) dopamine receptor (Homo sapiens, UniProt P21728).
Experiment [4] addresses 3',5'-cyclic-AMP phosphodiesterase 4A (Homo sapiens, UniProt P27815). The experiment is classed as functional.
In experiment [5] the target is T4, Amine oxidase [flavin-containing] A (Homo sapiens, UniProt P21397).
T4 sequence (P21397 whole entry): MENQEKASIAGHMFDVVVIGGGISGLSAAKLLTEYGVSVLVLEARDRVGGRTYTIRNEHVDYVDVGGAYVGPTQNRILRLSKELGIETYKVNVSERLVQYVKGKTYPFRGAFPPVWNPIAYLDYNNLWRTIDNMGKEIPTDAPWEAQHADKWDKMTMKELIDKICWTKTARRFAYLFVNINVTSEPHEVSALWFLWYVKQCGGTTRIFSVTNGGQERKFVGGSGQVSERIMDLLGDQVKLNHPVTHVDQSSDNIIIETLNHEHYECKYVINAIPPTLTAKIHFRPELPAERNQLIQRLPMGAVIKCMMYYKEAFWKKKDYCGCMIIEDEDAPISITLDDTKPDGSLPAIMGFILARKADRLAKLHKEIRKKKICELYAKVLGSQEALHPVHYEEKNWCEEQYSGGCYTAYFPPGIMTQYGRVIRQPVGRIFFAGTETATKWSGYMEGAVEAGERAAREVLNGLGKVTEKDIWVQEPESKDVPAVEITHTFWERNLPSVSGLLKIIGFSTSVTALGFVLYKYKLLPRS
The experiment is classed as functional.

The target of experiment [6] is 5-hydroxytryptamine receptor 2B (Homo sapiens, UniProt P41595). The experiment is classed as functional, cell-based.
Experiment [7] deals with Prostaglandin G/H synthase 1 (Homo sapiens, UniProt P23219). The experiment is classed as functional.
Further: assay procedure not described here.

Chain of D(1A) dopamine receptor (P21728 whole entry): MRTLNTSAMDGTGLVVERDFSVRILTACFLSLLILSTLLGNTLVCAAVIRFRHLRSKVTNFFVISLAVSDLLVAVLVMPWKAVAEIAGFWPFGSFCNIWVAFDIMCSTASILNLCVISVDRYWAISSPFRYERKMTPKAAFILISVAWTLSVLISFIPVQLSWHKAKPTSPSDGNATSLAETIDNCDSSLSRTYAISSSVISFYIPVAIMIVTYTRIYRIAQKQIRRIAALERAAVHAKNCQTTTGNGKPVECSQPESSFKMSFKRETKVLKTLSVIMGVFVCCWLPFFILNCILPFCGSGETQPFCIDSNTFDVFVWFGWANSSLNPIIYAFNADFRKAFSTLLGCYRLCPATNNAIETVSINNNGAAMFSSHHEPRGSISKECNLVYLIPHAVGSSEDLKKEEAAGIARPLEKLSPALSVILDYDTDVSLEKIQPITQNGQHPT
Chain of Sodium-dependent noradrenaline transporter (P23975 whole entry): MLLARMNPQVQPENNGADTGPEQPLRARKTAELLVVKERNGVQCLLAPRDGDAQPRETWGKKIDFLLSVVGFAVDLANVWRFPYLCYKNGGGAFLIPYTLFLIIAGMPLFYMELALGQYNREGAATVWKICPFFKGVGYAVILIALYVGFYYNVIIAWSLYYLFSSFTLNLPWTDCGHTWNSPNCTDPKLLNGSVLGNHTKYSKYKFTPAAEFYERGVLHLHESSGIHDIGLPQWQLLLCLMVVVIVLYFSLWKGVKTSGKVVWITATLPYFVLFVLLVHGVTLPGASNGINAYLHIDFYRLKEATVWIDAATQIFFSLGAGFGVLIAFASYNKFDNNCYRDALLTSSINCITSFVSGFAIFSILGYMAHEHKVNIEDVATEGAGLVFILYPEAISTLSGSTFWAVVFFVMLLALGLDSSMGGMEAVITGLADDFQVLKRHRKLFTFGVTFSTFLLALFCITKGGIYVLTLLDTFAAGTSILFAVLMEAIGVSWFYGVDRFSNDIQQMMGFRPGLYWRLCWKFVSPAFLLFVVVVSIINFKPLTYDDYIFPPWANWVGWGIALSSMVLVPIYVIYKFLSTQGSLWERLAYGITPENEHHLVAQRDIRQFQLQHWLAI
Chain of 5-hydroxytryptamine receptor 2B (P41595 whole entry): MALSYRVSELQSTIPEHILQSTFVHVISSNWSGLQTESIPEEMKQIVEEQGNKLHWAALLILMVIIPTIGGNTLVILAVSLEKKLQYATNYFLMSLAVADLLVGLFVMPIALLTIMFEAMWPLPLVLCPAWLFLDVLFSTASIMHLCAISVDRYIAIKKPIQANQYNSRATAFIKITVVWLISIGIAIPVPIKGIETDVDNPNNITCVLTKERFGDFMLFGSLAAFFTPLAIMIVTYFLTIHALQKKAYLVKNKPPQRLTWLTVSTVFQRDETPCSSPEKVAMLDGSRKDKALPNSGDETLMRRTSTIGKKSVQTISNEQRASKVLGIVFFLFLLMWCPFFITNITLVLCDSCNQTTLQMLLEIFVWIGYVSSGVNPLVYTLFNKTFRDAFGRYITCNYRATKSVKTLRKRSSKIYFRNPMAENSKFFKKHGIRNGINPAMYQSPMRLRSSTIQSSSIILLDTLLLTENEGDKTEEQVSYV
Chain of Mu-type opioid receptor (P35372 whole entry): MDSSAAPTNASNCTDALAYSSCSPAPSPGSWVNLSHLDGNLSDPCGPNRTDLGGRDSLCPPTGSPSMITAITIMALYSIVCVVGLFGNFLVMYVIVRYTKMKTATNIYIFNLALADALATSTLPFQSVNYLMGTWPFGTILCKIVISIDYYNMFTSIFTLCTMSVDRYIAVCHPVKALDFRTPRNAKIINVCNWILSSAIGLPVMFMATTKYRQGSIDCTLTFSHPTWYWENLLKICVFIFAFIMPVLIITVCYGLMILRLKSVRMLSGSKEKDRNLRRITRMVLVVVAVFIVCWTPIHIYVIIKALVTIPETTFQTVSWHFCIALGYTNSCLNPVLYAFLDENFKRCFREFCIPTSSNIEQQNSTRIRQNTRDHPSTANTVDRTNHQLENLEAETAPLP
Chain of 3',5'-cyclic-AMP phosphodiesterase 4A (P27815 whole entry): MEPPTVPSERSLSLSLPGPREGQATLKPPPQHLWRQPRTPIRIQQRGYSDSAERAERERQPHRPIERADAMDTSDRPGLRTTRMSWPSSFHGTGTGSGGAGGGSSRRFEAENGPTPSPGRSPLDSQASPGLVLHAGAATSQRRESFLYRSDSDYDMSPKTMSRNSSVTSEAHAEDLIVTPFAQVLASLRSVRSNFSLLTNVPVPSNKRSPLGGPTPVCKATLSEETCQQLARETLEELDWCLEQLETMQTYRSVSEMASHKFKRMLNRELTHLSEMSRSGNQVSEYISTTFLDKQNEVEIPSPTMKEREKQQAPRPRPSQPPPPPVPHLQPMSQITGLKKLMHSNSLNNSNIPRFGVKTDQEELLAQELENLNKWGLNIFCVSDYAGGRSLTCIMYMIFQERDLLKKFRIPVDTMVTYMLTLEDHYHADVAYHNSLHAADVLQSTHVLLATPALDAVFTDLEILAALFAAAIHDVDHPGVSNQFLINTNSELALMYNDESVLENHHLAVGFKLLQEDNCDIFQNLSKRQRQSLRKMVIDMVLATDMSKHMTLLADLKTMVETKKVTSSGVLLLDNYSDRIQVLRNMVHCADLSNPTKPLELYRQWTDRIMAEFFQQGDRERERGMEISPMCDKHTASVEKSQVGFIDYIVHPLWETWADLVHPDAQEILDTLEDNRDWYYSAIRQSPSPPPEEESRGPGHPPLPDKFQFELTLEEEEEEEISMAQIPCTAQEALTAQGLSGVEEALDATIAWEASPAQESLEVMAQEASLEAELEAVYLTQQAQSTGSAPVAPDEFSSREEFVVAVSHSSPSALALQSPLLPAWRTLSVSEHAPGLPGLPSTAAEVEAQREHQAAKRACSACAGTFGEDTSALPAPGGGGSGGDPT
Chain of Prostaglandin G/H synthase 1 (P23219 whole entry): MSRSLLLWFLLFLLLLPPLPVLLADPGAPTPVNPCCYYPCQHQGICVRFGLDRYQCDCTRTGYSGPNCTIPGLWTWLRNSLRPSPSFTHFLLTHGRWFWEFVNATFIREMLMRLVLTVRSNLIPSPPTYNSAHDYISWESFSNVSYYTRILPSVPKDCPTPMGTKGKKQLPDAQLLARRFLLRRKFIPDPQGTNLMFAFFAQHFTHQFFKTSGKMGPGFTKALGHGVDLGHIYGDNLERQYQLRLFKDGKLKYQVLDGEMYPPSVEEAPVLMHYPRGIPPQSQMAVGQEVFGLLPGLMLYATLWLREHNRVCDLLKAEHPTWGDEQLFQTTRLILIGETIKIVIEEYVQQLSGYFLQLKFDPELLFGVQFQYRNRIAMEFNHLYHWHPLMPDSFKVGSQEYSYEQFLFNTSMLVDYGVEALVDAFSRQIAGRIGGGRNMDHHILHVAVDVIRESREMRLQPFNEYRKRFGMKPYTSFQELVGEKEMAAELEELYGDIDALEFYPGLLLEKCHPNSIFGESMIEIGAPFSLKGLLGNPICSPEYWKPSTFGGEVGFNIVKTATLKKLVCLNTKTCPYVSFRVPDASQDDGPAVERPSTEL

In the case of `CC[C@H](C)C[C@H](C)CCCCCCCCC(=O)N[C@H]1C[C@@H](O)[C@@H](NCCN)NC(=O)[C@@H]2[C@@H](O)CCN2C(=O)[C@H]([C@H](O)CCN)NC(=O)[C@H]([C@H](O)[C@@H](O)c2ccc(O)cc2)NC(=O)[C@@H]2C[C@@H](O)CN2C(=O)[C@H]([C@@H](C)O)NC1=O` [CASPOFUNGIN], the AC50 at Thromboxane A2 receptor was > 30 µM; on Mu-type opioid receptor it was 5.12 µM; in [1], 10.8 µM; in [2] it was 5.03 µM; in experiment [3] it was > 30 µM; on D(1A) dopamine receptor, 8.83 µM. The half-maximal activity concentration (AC50) in [4] was > 30 µM; in experiment [5], > 30 µM; in [6], > 30 µM; in experiment [7] it was 3.63 µM.
With `CN1CCC(=C2c3ccccc3Sc3ccccc32)CC1` [PIMETHIXENE], the AC50 at Thromboxane A2 receptor is 14 µM; on Mu-type opioid receptor it was 8.56 µM; in experiment [1], 0.0071 µM; in experiment [2] it was 0.142 µM; in experiment [3] it was 0.0422 µM; at D(1A) dopamine receptor it was 0.0552 µM. Besides, the AC50 in experiment [4], in experiment [5], in experiment [6] and in experiment [7] was > 30 µM throughout.
Consider `C=CCN1CC[C@]23CCCC[C@H]2[C@H]1Cc1ccc(O)cc13` [LEVALLORPHAN], for which the AC50 is > 30 µM on Thromboxane A2 receptor; 0.003 µM on Mu-type opioid receptor; 8.91 µM in experiment [1]; > 30 µM in [2]; > 30 µM in experiment [3]; > 30 µM at D(1A) dopamine receptor. The AC50 was > 30 µM in experiment [4], > 30 µM in [5], > 30 µM in experiment [6] and 8.54 µM in experiment [7].
In the case of `[H]/N=C(\N/C(=N/[H])Nc1ccc(Cl)cc1)NC(C)C` [PROGUANIL], the AC50 was > 30 µM at Thromboxane A2 receptor; > 30 µM at Mu-type opioid receptor; > 30 µM in [1]; 1.07 µM in experiment [2]; 11.9 µM in [3]; 8.26 µM at D(1A) dopamine receptor. In addition, the half-maximal activity concentration (AC50) in [4], in [5], in experiment [6] and in [7] was > 30 µM throughout.
As to `CC(C)OC(=O)CCC/C=C\C[C@@H]1[C@@H](/C=C/C(F)(F)COc2ccccc2)[C@H](O)C[C@@H]1O` [TAFLUPROST], the AC50 at Thromboxane A2 receptor was 29.6 µM; on Mu-type opioid receptor, > 30 µM; in experiment [1], > 30 µM; in experiment [2], > 30 µM; in experiment [3], > 30 µM; on D(1A) dopamine receptor it was > 30 µM. Moreover, the AC50 in experiment [4], in experiment [5], in [6] and in experiment [7] was > 30 µM in each case.
For the molecule `OC[C@H]1O[C@@H](c2ccc(F)c(Cc3cc4ccccc4s3)c2)[C@H](O)[C@@H](O)[C@@H]1O` [IPRAGLIFLOZIN], the concentration at half-maximal activity (AC50) (on Thromboxane A2 receptor; at Mu-type opioid receptor; in experiment [1]; in experiment [2]; in experiment [3]; at D(1A) dopamine receptor) was > 30 µM in each case. In addition, the half-maximal activity concentration (AC50) in experiment [4], in [5], in experiment [6] and in experiment [7] was > 30 µM each time.
As to `N[C@@H](CO)C(=O)O` [SERINE], the half-maximal activity concentration (AC50) (at Thromboxane A2 receptor; at Mu-type opioid receptor; in experiment [1]; in experiment [2]; in experiment [3]; at D(1A) dopamine receptor) was > 30 µM throughout. Besides, the AC50 in experiment [4] was > 30 µM; in [5], > 10 µM; in [6], > 30 µM; in experiment [7], > 30 µM.
`CN(CC1(C)CCCO1)S(=O)(=O)c1ccc(Cl)c(S(N)(=O)=O)c1` (stereo not given) [MEFRUSIDE]: the half-maximal activity concentration (AC50) (at Thromboxane A2 receptor; on Mu-type opioid receptor; in [1]; in experiment [2]; in experiment [3]; on D(1A) dopamine receptor) was > 30 µM in each case. Further, the concentration at half-maximal activity (AC50) in [4], in experiment [5], in experiment [6] and in [7] was > 30 µM each time.
